Measurements: PMC5688848 (Bioorganic & medicinal chemistry, 2016)
Ends that are not written are not given here.

Key:
[1] = target: His-REV7(R124A)/REV3L(1847–1898) complex (Homo sapiens, UniProt Q9UI95, R124A); assay: Thermal shift assay; format: binding; details: compound 500 μM, protein 5 μM, 4 h at room temperature
[2] = target: His-REV7(R124A)/biotin-AviTag-REV3L(1846–1898) complex (Homo sapiens, UniProt Q9UI95, R124A); assay: Pull-down assay on streptavidin-conjugated agarose beads; format: binding; details: compound 50 μM, complex 1 μM, 4°C 20 h
[3] = test system: ICLR in COS7 cells; assay: ICL repair assay; format: cell-based; details: 75 μM
[4] = test system: HeLa cells; assay: Cisplatin sensitization by the clonogenic survival assay; format: cell-based; details: cisplatin 24 h then compound 75 μM 24 h, 6 more days
[5] = test system: HeLa cells; assay: Cell toxicity assay; format: cell-based; details: 75 μM, 3 days
[6] = target: T1, hexahistidine (His)-REV7(R124A) (UniProt Q9UI95 1-211, R124A); assay: AlphaScreen or HTRF
[7] = target: T1, hexahistidine (His)-REV7(R124A); assay: AlphaScreen or HTRF; remark: listed apart in the source

T1 sequence (Q9UI95 whole entry R124A): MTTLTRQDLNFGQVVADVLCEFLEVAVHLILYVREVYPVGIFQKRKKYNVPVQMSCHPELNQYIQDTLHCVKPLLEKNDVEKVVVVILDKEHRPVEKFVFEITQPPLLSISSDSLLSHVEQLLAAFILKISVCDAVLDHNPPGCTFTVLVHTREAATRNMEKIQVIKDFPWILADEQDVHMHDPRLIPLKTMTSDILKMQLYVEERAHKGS
His-REV7(R124A)/REV3L(1847–1898) complex, sequence (Q9UI95 whole entry R124A, one chain of several): as the sequence (Q9UI95 whole entry R124A) above
His-REV7(R124A)/biotin-AviTag-REV3L(1846–1898) complex, sequence (Q9UI95 whole entry R124A, one chain of several): as the sequence (Q9UI95 whole entry R124A) above

With `CC(=O)N1CCC(Cn2cnc3scc(-c4ccco4)c3c2=O)CC1` [compound 1] the “Shift in the denaturation point of the His-REV7(R124A)/REV3L(1847–1898) complex” value [1] was “clear shift in the denaturation point” and the “Isolation of His-REV7(R124A) on streptavidin beads (complex dissociation)” value [2] was “significantly inhibited”.

For `CC(=O)N1CCC(Cn2cnc3scc(-c4ccc(C)o4)c3c2=O)CC1` [compound 7], the “ICLR activity (luciferase activity of ICL plasmid normalized to non-ICL plasmid)” value [3] was “suppressed luciferase activity”, the “Normalized number of colonies (clonogenic survival) versus cisplatin only” value [4] was “lesser” and the “Viability / growth of HeLa cells (alamarBlue), normalized by DMSO” value [5] was “decreased HeLa cell growth but did not completely eliminate the cells”.

ANILKPLMSPPSREEIMATLL-biotin [C-terminal biotin-tagged REV3L(1875–1895) peptide]: binds [6].

ANILKPLMSPPSREEIMATLL [non-tagged REV3L(1875–1895) peptide] was tested, and the IC50 [7] was 80 nM.
